In patent US20230234942A1, “COMPOUNDS FOR TREATING HUNTINGTON'S DISEASE” (PTC Therapeutics, Inc., priority 2020, published 2023):

System: Endogenous Huntingtin Protein
Assay: Endogenous Huntingtin Protein Assay (ELISA-based MSD electrochemiluminescence)
Format: cell-based
Details: Table 2; MSD plates coated with MW1 (expanded polyglutamine) or MAB2166 capture antibody; "inactive" = result above the detection limit of the assay
Outline: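 Endogenous huntingtin measured on MSD plates coated with MW1 (polyglutamine-expanded) or MAB2166 capture antibody; lysates bound overnight at 4 °C. Signal developed with #56565 rabbit monoclonal and goat anti-rabbit SULFO-TAG (0.25 µg/mL, 1 h RT each), electrochemiluminescence read on SI 6000.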

Row | Molecule | IC50 | IC50 (nM)
1 | Cn1nc2ccc(-c3ccc(-c4cnc(N5CCN[C@@H](C6CC6)C5)nn4)c(O)c3)nc2n1 [Cpd 202, 2-{3-[(3S)-3-cyclopropylpiperazin-1-yl]-1,2,4-triazin-6-yl}-5-(2-methyl-2H-[1,2,3]triazolo[4,5-b]pyridin-5-yl)phenol] | 3.7 nM | 
2 | COc1cc(-c2cc(O)c(-c3cnc(N4CCN[C@@H](C(C)C)C4)nn3)c(F)c2)ncn1 [Cpd 28, 3-fluoro-5-(6-methoxypyrimidin-4-yl)-2-{3-[(3S)-3-(propan-2-yl)piperazin-1-yl]-1,2,4-triazin-6-yl}phenol] | 26.2 nM | 
3 | CC(C)[C@H]1CN(c2ncc(-c3ccc(-c4ncc(Cl)s4)cc3O)nn2)CCN1 [Cpd 189, 5-(5-chloro-1,3-thiazol-2-yl)-2-{3-[(3S)-3-(propan-2-yl)piperazin-1-yl]-1,2,4-triazin-6-yl}phenol] | 461 nM | 
4 | Cc1cnc(-c2ccc(-c3cnc(N4CCN[C@@H](C(C)C)C4)nn3)c(O)c2)cn1 [Cpd 145, 5-(5-methylpyrazin-2-yl)-2-{3-[(3S)-3-(propan-2-yl)piperazin-1-yl]-1,2,4-triazin-6-yl}phenol] | 480 nM | 
5 | CCc1cc(-c2ccc(-c3cnc(N4CCN[C@@H](C(C)C)C4)nn3)c(O)c2)cn2cc(C)nc12 [Cpd 138, 5-(8-ethyl-2-methylimidazo[1,2-a]pyridin-6-yl)-2-{3-[(3S)-3-(propan-2-yl)piperazin-1-yl]-1,2,4-triazin-6-yl}phenol] | 19.9 nM | 
6 | Cc1ccc2oc(-c3ccc(-c4cnc(N5C[C@@H](C)N[C@@H](C)C5)nn4)c(O)c3)cc2n1 [Cpd 120, 2-{3-[(3R,5S)-3,5-dimethylpiperazin-1-yl]-1,2,4-triazin-6-yl}-5-(5-methylfuro[3,2-b]pyridin-2-yl)phenol] |  | inactive
7 | Cc1cn2nc(-c3ccc(-c4cnc(N5CCN[C@H](C)C5)nn4)c(O)c3)cc(C)c2n1 [Cpd 98, 5-(2,8-dimethylimidazo[1,2-b]pyridazin-6-yl)-2-{3-[(3R)-3-methylpiperazin-1-yl]-1,2,4-triazin-6-yl]phenol] | 10.2 nM | 
8 | 4-fluoro-5-[1-(^2H3)methyl-1H-pyrazol-4-yl]-2-{3-[(3S)-3-(propan-2-yl)piperazin-1-yl]-1,2,4-triazin-6-yl}phenol [Cpd 152] | 15 nM | 
9 | CC(C)[C@H]1CN(c2ncc(-c3ccc(-c4cn[nH]c4)cc3O)nn2)C[C@@H](C)N1 [Cpd 229, 2-{3-[(3R,5S)-3-methyl-5-(propan-2-yl)piperazin-1-yl]-1,2,4-triazin-6-yl}-5-(1H-pyrazol-4-yl)phenol] | 18.2 nM | 
10 | CC(C)[C@H]1CN(c2ncc(-c3ccc(-n4ncc5cncnc54)cc3O)nn2)CCN1 [Cpd 162, 2-{3-[(3S)-3-(propan-2-yl)piperazin-1-yl]-1,2,4-triazin-6-yl}-5-(1H-pyrazolo[3,4-d]pyrimidin-1-yl)phenol] | 25.4 nM | 
11 | C[C@@H]1CN(c2ncc(-c3ccc(-n4nccn4)cc3O)nn2)C[C@H](C)N1C [Cpd 52, 5-(2H-1,2,3-triazol-2-yl)-2-{3-[(3R,5S)-3,4,5-trimethylpiperazin-1-yl]-1,2,4-triazin-6-yl}phenol] | 336 nM | 
12 | Cc1nc2cnc(-c3ccc(-c4cnc(N5C[C@@H](C)N[C@@H](C)C5)nn4)c(O)c3)cn2n1 [Cpd 167, 2-{3-[(3R,5S)-3,5-dimethylpiperazin-1-yl]-1,2,4-triazin-6-yl}-5-(2-methyl[1,2,4]triazolo[1,5-a]pyrazin-6-yl)phenol] | 14.2 nM | 
13 | Oc1cc(-c2cn[nH]c2)ccc1-c1cnc(N2CCN3CCCC3C2)nn1 (centres unmarked) [Cpd 284, 2-[3-(hexahydropyrrolo[1,2-a]pyrazin-2(1H)-yl)-1,2,4-triazin-6-yl]-5-(1H-pyrazol-4-yl)phenol] | 91.4 nM | 
14 | Cc1nc2nc(-c3ccc(-c4cnc(N5CCN[C@@H](C6CC6)C5)nn4)c(O)c3)nc(C)c2[nH]1 [Cpd 84, 2-{3-[(3S)-3-cyclopropylpiperazin-1-yl]-1,2,4-triazin-6-yl]-5-(6,8-dimethyl-7H-purin-2-yl)phenol] | 5.9 nM | 
